Article PMC7856885 (Advanced Science, 2020)
“Also recorded” adds a separate entry of the source. Where two headings read alike, the source gives them in different places. Residues, ends and D or L forms follow the SMILES beside them. *: point of attachment. X1 = CC(=O)O[C@H]1C(=O)[C@@]2(C)[C@H]([C@H](OC(=O)c3ccccc3)[C@]3(O)C[C@H](OC(=O)[C@H](OC(=O)CC(=O)*)[C@@H](NC(=O)c4ccccc4)c4ccccc4)C(C)=C1C3(C)C)[C@]1(OC(C)=O)CO[C@@H]1C[C@@H]2O

How the values were obtained:
U87MG+MMP‐2 siRNA = assay: MTS cell proliferation assay; assay type: cell-based; conditions: Homo sapiens
Procedure: (§1) The human GBM cell lines (U87MG and U251) were respectively obtained from the American Type Culture Collection (ATCC, Manassas, VA) and the China Academic Sinica Cell Repository (Shanghai, China) and cultured in accordance with the protocol of the supplier. In brief, all the cell lines were maintained in Dulbecco's Modified Eagle Medium (DMEM; Gibco, Grand Island, NY) supplemented with 10% fetal bovine serum (FBS; Biological Industries, Kibbutz Beit Haemek, Israel). Cells were incubated in a humidified incubator at 37 °C under 5% CO2 atmosphere.
(§2) Homo‐MMP‐2 siRNA and nonsilencing siRNA were designed and synthesized by GenePharma (Suzhou, China). The transfection of siRNA was performed using the X‐tremeGENE siRNA transfection reagent (Roche, Mannheim, Germany) in accordance with the manufacturer's instructions. Before transfection, all the cell lines were inoculated at a density of 5 × 10^5 cells per well in a 6‐well plate. After incubation overnight, the cells were washed with fresh DMEM medium without FBS. At the same time, the reagent of transfection was mixed with homo‐MMP‐2 siRNA or nonsilencing siRNA (50 × 10^−9 м) for 15 min at a room temperature. The solution of the transfection complex was then added into the cell for 24 h. As a negative control group, a nonsilencing siRNA was transfected in the cell line in order to eliminate the influence of the transfection reagent.
(§3) The cells treated with PBS and 100 × 10^−6 м SynB3‐PVGLIG were used as the control and the dual‐functional peptide control, respectively. After treatment, the cells were washed with PBS three times and subsequently incubated with 20 µL Cell Titer 96AQeuous One Solution Reagent (Promega, Madison, WI, USA) for 2 h at 37 °C. The absorbance was measured on a Synergy microplate reader (BioTek Instruments, Winooski, VT) at 490 nm. All the data were obtained from three independent experiments performed in three wells. The absorbance of cells in the control group was taken as 100% viability, and the inhibition rate of cell viability was counted by using the following equation: % Inhibition rate = (Absorbancecontrol − Absorbancetest)/(Absorbancecontrol − Absorbanceblank) × 100.

U251+MMP‐2 siRNA = assay: MTS cell proliferation assay; assay type: cell-based; conditions: Homo sapiens
Procedure: as §1, §2, §3

[1] = Solubility in PBS at 3 mg mL^−1 (appearance of the solution); assay type: physicochemical
U251 = assay: MTS cell proliferation assay; assay type: cell-based; conditions: Homo sapiens
Procedure: as §1, §3

U87MG = assay: MTS cell proliferation assay; assay type: cell-based; conditions: Homo sapiens, U-87 MG, linear regression
Procedure: as §1, §3

[2] = Real‐time fluorescence imaging (Cy5) and biodistribution analysis; assay type: in vivo, U87MG xenograft nude mice; conditions: Cy5‐labeled; for Drug distribution at the tumor site in the brain: 5.25 µmol/5 mL kg^−1
Procedure: An untreated group was administered with physiological saline as a control. Real‐time fluorescence images were captured and analyzed using the IVIS Lumina Imaging System (PerkinElmer, Waltham, MA). […] At 0.5, 2, 4, 12, 24 and 48 h after administration, 3 mice were taken from each group to capture real‐time fluorescence images of the tumor and drug distribution, and the images were analyzed by the IVIS Lumina Imaging System. The excitation and emission quantitative wavelengths used were 640 nm and 700 nm, respectively. At the end of each experiment, animals were euthanized and their brains, lungs, hearts, livers, and kidneys were harvested and further tested by the IVIS Lumina imaging system to determine the drug distribution in tissue from each organ.

[3] = target: T1, recombinant human MMP‐2 protein (Homo sapiens, UniProt P08253); assay: Release study: cleavage by MMP‐2, HPLC/MS; assay type: in vitro ADME
T1 construct: purchased PeproTech (Rocky Hill, NJ, USA)
T1 sequence (P08253 110-660): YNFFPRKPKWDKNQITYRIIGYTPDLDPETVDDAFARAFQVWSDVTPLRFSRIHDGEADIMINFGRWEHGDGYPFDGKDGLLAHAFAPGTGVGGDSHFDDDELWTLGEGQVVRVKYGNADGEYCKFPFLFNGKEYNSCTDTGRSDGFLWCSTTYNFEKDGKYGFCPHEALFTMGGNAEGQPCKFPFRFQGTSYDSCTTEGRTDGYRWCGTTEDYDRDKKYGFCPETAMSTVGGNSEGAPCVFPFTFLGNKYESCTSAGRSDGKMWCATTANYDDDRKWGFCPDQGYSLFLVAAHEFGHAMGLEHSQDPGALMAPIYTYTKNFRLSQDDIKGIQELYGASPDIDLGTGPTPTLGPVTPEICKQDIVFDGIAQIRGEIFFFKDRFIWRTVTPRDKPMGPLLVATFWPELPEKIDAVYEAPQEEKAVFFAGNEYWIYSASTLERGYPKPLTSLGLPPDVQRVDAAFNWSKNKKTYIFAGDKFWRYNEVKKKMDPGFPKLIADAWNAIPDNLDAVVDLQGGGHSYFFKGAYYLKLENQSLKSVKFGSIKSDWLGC
Procedure: The recombinant human MMP‐2 protein with 62.0 kDa molecular weight was purchased from PeproTech (Rocky Hill, NJ, USA). To observe the ability of cleavage in vitro, MMP‐2 was incubated with 4‐aminophenylmercuric acetate (7 × 10^−3 M) at 37 °C for 1 h. […] The reacting solution (50 µL) was then collected and analyzed through HPLC/MS. The spectra data were collected at 220 nm using gradient solvent conditions. BEH C18, 1.7 × 10^−6 м, 100 × 2.1 mm column was used. The chromatographic conditions used for the analyses were: solvent A – 0.1% formic acid in water; solvent B – 0.1% formic acid in acetonitrile: 0–15 min: 2% MeCN, 15–18 min: 100% MeCN, 18–20 min: 2% MeCN, with a flow rate of 0.3 mL min^−1.

[4] = Cerebral distribution: free PTX in tumor and tumor‐free brain tissue by HPLC/MS; assay type: in vivo, nude mice with orthotopic U87MG transplantation
Procedure: PTX levels in the mouse brains were measured by the HPLC/MS method. […] Tumor‐free brain tissue as well as the tumor were isolated and weighed separately. The tissue was placed on a 35 mm dish and washed with PBS on ice. The tissue was then cut into small pieces with a surgical scissor and transferred into a 1.5 mL centrifuge tube. Appropriate amounts of 50% methanol were added into the tube to prepare the tissue suspension (0.2 g mL^−1). The tissue suspensions were thoroughly homogenized by an ultrasonic cell disrupter. Thereafter, the tissue homogenates were centrifuged at 10 000 × g for 30 min. The precipitate was removed, and the supernatant was collected for further content analysis by HPLC/MS. […] The drug response values were obtained and analyzed.

MMP‐2 = assay: recombinant human MMP‐2 protein (5 ng µL^−1), activated with 4‐aminophenylmercuric acetate; conditions: 37 °C, up to 3 h
[5] = tumor tissue from brains of nude mice with orthotopic U87MG transplantation after i.v. injection; conditions: BALB/C athymic nude mice, up to 12 h
[6] = tumor‐free (normal) brain tissue of nude mice with orthotopic U87MG transplantation after i.v. injection; conditions: BALB/C athymic nude mice, up to 12 h
[7] = 5.25 µmol/5 mL kg^−1, tail vein

| Molecule | IC50 (U87MG+MMP‐2 siRNA; 4 h) [µM] | IC50 (U87MG+MMP‐2 siRNA; 24 h) [µM] | IC50 (U87MG+MMP‐2 siRNA; 48 h) [µM] | IC50 (U251+MMP‐2 siRNA; 4 h) [µM] | IC50 (U251+MMP‐2 siRNA; 24 h) [µM] | IC50 (U251+MMP‐2 siRNA; 48 h) [µM] | IC50 (U251; U-251, U251, 4 h) [µM] | IC50 (U251; U-251, U251, 24 h) [µM] | IC50 (U251; U-251, U251, 48 h) [µM] | IC50 (U87MG; 4 h) [µM] | IC50 (U87MG; 24 h) [µM] | IC50 (U87MG; 48 h) [µM] | Drug distribution at the tumor site in the brain [2] | Tissues in which the fluorescence signal (Cy5) was mainly detected [2, 7] | other results |
| --- | --- | --- | --- | --- | --- | --- | --- | --- | --- | --- | --- | --- | --- | --- | --- |
| CC(=O)O[C@H]1C(=O)[C@@]2(C)[C@H]([C@H](OC(=O)c3ccccc3)[C@]3(O)C[C@H](OC(=O)[C@H](O)[C@@H](NC(=O)c4ccccc4)c4ccccc4)C(C)=C1C3(C)C)[C@]1(OC(C)=O)CO[C@@H]1C[C@@H]2O [PTX, Paclitaxel] | 209 | 37.3 | 28.5 | 136 | 31.5 | 23.6 | 181 | 47.1 | 27.4 | 148 | 46.3 | 31.3 | no drug distribution was detected | lungs, liver, and kidneys | Solubility in PBS (appearance) [1]: nearly insoluble |
| CC[C@H](C)[C@H](NC(=O)[C@H](CC(C)C)NC(=O)CNC(=O)[C@@H](NC(=O)[C@@H]1CCCN1C(=O)CC(=O)O[C@@H](C(=O)O[C@H]1C[C@@]2(O)[C@@H](OC(=O)c3ccccc3)[C@@H]3[C@]4(OC(C)=O)CO[C@@H]4C[C@H](O)[C@@]3(C)C(=O)[C@H](OC(C)=O)C(=C1C)C2(C)C)[C@@H](NC(=O)c1ccccc1)c1ccccc1)C(C)C)C(=O)NCC(=O)N[C@@H](CCCNC(=N)N)C(=O)N[C@@H](CCCNC(=N)N)C(=O)N[C@@H](CC(C)C)C(=O)N[C@@H](CO)C(=O)N[C@@H](Cc1ccc(O)cc1)C(=O)N[C@@H](CO)C(=O)N[C@@H](CCCNC(=N)N)C(=O)N[C@@H](CCCNC(=N)N)C(=O)N[C@@H](CCCNC(=N)N)C(=O)N[C@@H](Cc1ccccc1)C(=O)O [SynB3‐PVGLIG‐PTX, PTX‐2′OH‐malonyl‐PVGLIG‐SynB3] (X1-PVGLIGRRLSYSRRRF-OH) |  |  |  |  |  |  |  |  |  |  |  |  | mainly distributed in the transplanted gliomas | bladder, liver, kidneys, lungs, and brain | Cleavage without MMP‐2 ([3]; 2.5 mg mL^−1, no MMP‐2, HPLC/MS, neither PVG‐PTX nor free PTX detected): could not be cleaved; Percentage of conjugate cleaved by MMP‐2 ([3]; 2.5 mg mL^−1 conjugate, activated MMP‐2 5 ng µL^−1, 0.5 h, HPLC/MS): about 41.18%; mean diameter of nanocomplex: 162 nm; PTX concentration in tumor, times that of the normal brain ([4]; 2 h after single dose 5.25 µmol/5 mL kg^−1 i.v.): 20 times; Concentration of PTX in the tumor tissue, finally reached ([4]; last time point (sampling 2, 4, 12 h), single dose 5.25 µmol/5 mL kg^−1 i.v., HPLC/MS, n = 5): 456.32 µg G^−1; Fluorescent signal at 48 h ([2]; 5.25 µmol/5 mL kg^−1, 48 h): could still be detected in brain; Time at which the fluorescent signal in the brain tumor peaked ([2]; 5.25 µmol/5 mL kg^−1, tail vein, imaged 0.5–48 h): 12 h |
| Cn1nnc2c(C(N)=O)ncn2c1=O [TMZ, Temozolomide] | 471 | 414 | 280 | 3300 | 869 | 131 | 3070 | 660 | 213 | 392 | 382 | 514 |  |  | Solubility in PBS (appearance) ([1]; 3 mg mL^−1 in PBS, visual): nearly insoluble |
| PVGLIG-RRLSYSRRRF |  |  |  |  |  |  |  |  |  |  |  |  |  |  | fragment found (MMP‐2): PVG‐PTX, 0.5 h; also recorded: SynB3-LIG; fragment found [5]: free PTX, 2 h; fragment found [6]: free PTX, 2 h |
